In patent publication US20080293070A1, “Markers for Memory T Cells and Uses Thereof” (priority 2005, published 2008):

B1: IL-7: cytokine purchased from R&D systems (protein, UniProt P13232 26-177, looked up)
Interleukin-7: DCDIEGKDGKQYESVLMVSIDQLLDSMKEIGSNCLNNEFNFFKRHICDANKEGMFLFRAARKLRQFLKMNSTGDFDLHLLKVSEGTTILLNCTGQVKGRKPAALGEAQPTKSLEENKSLKEQKKLNDLCFLKRLLQEIKTCWNKILMGTKEH

Tests used:
Assay type in all cases: cell-based, human
[1] = system: pFOXO3a (S253); test: FOXO3a phosphorylation (S253) in CD4+ T cells after kinase inhibitors, Western blot; settings: purified CD4+ T cells pre-treated 1 hour; AKT inhibitor 10 μM, Wedelolactone 100 μM
Experimental: (§1) FIG. 7. AKT and IKK mediate FOXO3a phosphorylation and survival in CD4^+ T cell. (A) Regulation of FOXO3a phosphorylation. Purified CD4^+ T Cells were pre-treated for 1 hour with kinase inhibitors (AKT-VI, AKT inhibitor: 10 μM; STO-609, CamKK inhibitor: 5 μg/ml; Wedelolactone, IKK inhibitor: 100 μM and U0126, MEK1/2 inhibitor: 50 μM). pFoxo3a (S253) was assessed. The results are representative of two independent experiments. (B) CD4^+ T cell susceptibility to apoptosis induced upon treatment with specific kinase inhibitors. CD4^+ T cells were cultured in the presence of kinase inhibitors for 24 hrs (U0126:100 μM; STO-609:10 μg/ml; Wedelolactone and AKT-IV as indicated). After 24 h, the proportion of Annexin-V^+, propidium iodide (PI)^+ cells was quantified by flow cytometry. […] Cells were analyzed by Western Blot (WB) using Bim specific antibodies. […] The levels of pAKT were assessed by flow cytometry in TCM- and TEM-gated subsets. The results are represented as the mean fold increase ±SD, calculated as (MFI of stimulated cells/MFI of un-stimulated cells) of five independent experiments. Values of p (determined by two-tailed T-test) are shown.
(§2) Western Blotting analysis. […] HRP activity was detected using an enhanced chemiluminescence detection procedure (ECL-plus detection system, Amersham Biosciences). […] Protein expression levels were expressed as a percentage of the highest signals obtained. […]

[2] = system: CD4+ T cells; test: Apoptosis of CD4+ T cells cultured with kinase inhibitors, Annexin-V flow cytometry; settings: for proportion of Annexin-V+ cells: CD4+ T cells, 24 hrs with inhibitor; for inhibitor treatment concentration: concentration used to treat sorted TCM and TEM, what the IC50 refers to is not stated
Experimental: FIG. 7. AKT and IKK mediate FOXO3a phosphorylation and survival in CD4^+ T cell. (A) Regulation of FOXO3a phosphorylation. Purified CD4^+ T Cells were pre-treated for 1 hour with kinase inhibitors (AKT-VI, AKT inhibitor: 10 μM; STO-609, CamKK inhibitor: 5 μg/ml; Wedelolactone, IKK inhibitor: 100 μM and U0126, MEK1/2 inhibitor: 50 μM). pFoxo3a (S253) was assessed. The results are representative of two independent experiments. (B) CD4^+ T cell susceptibility to apoptosis induced upon treatment with specific kinase inhibitors. CD4^+ T cells were cultured in the presence of kinase inhibitors for 24 hrs (U0126:100 μM; STO-609:10 μg/ml; Wedelolactone and AKT-IV as indicated). After 24 h, the proportion of Annexin-V^+, propidium iodide (PI)^+ cells was quantified by flow cytometry. The results are depicted as a percentage of apoptotic cells within the total population and are representative of two independent experiments. (C) Bim expression levels in response to AKT and IKK inhibitors. CD4^+ T cells were treated with AKT-IV (1.6 μM) or wedelolactone (100 μM) for 24 h. Cells were analyzed by Western Blot (WB) using Bim specific antibodies. (D and E) Regulation of AKT and IKK phosphorylation in 4^+ memory subsets. (D) pIKKαβ (S176/180) protein levels in ex-vivo sorted TCM and TEM. […] (E) PBMCs, from healthy donors, were treated with H2O2 (5 mM) or Ig-cross-linked CD28 (2 Hg/ml) for 15 min at 37° C. and labeled with CD4, CD27, CD45RA and pAKT (S473) specific antibodies. The levels of pAKT were assessed by flow cytometry in TCM- and TEM-gated subsets. The results are represented as the mean fold increase ±SD, calculated as (MFI of stimulated cells/MFI of un-stimulated cells) of five independent experiments. Values of p (determined by two-tailed T-test) are shown.
(§3) Induction and quantification of apoptosis. Apoptotic cells were detected using annexin-V labeling according to the manufacturer's protocol (Biosource). The fluorescence signals were measured by flow cytometry using a BD LSRI flow cytometer (BD-Biosciences). Approximately 50,000-gated events were collected for each sample.
To confirm the importance of the phosphorylation of FOXO3a in memory T-cell survival, purified CD4^+ T cells were treated with different kinase-inhibitors, and apoptosis was assessed by flow cytometry using Annexin-V labeling. […] Moreover, we observed a significant upregulation of the levels of the pro-apoptotic molecule Bim, known to be a FOXO3a target, in cells treated with AKT or IKK inhibitors (three and eightfold respectively) (FIG. 7C). […] None of the other kinase-inhibitors tested induced apoptosis in CD4^+ T cells (FIG. 7B) even when used at much higher concentrations (data not shown). […]

[3] = system: Bim; test: Bim expression in CD4+ T cells in response to AKT and IKK inhibitors, Western blot; settings: 24 h, AKT-IV 1.6 μM, wedelolactone 100 μM
Experimental: as §1, §2

[4] = system: FasL; test: FasL expression in CD4+ T cells after AKT and IKK inhibitors, Western blot or flow cytometry; settings: data not shown
[5] = system: pAKT (S473); test: AKT phosphorylation (S473) in TCM- and TEM-gated PBMCs, PhosFlow; settings: H2O2 5 mM, 15 min; TCM vs TEM
Experimental: as §1, with “shown. […]” for “shown.”
To assess the importance of AKT and IKK in the survival of memory T cells, we evaluated the expression of the phosphorylated forms of these proteins in TCM and TEM subsets. […]

[6] = system: TCM; test: Apoptosis of sorted TCM induced by kinase inhibitors, Annexin-V labeling; settings: 24 h, AKT-IV 1.6 μM, wedelolactone 100 μM, n=2
Experimental: (§4) FIG. 8. Susceptibility of TCM and TEM to apoptosis induced by kinase inhibitors. Sorted TCM and TEM were cultured with or without AKT and IKK inhibitors as indicated. After 24 h, the percentage of apoptotic cells was quantified by Annexin-V-FITC labeling. Upper panel depict Results from a representative individual. Histogram plots show the percent of Annexin-V positive cells in TCM and TEM cells following a 24 h exposure to AKT or IKK-inhibitors. The dashed lines correspond to untreated cells while the plain lines correspond to cells treated with kinase-inhibitors. […] The fold increase of apoptosis is calculated as % of apoptotic cells in treated cells divided by the % of apoptotic cells in untreated cells.
as §3
(§5) After 24 h of treatment, the proportion of apoptotic cells was quantified using Annexin-V labeling (FIG. 8, top panel).

[7] = system: TEM; settings: sorted TEM, 24 h; AKT-IV 1.6 μM, wedelolactone 100 μM; n=2
Experimental: as §4, §3, §5

[8] = system: pSTAT5a (Y694); test: STAT5a phosphorylation in TCM and TEM in response to IL-2 or IL-7, flow cytometry
Experimental: (B, C and D) PBMCs from healthy donors were treated with IL-2 (100 U/ml) or IL-7 (10 ng/ml) for 15 min at 37° C. Cells were then labeled with Abs to CD4, CD27, CCR7, CD45RA and pSTAT5a. (B) Representative example of pSTAT5a expression levels. TCM-gated cells are represented in light grey and TEM-gated cells are represented in black. (C) Mean Fluorescence Intensity (MFI) of pSTAT5a level of expression measured in response to IL-2 or IL-7, in TCM and TEM (n=4). Mean pSTAT5a signal values are represented by black bars. P-values (determined by a two-tailed T-test) are shown (D) Expression level of CD127, CD25 and CD132 in ex-vivo TCM and TEM.
Flow cytometry analysis of STAT5a and AKT phosphorylation status. PBMCs were resuspended at 20 millions/ml in RPMI and incubated for 30 min in the presence of CCR7-FITC abs (20 μl/million cells) at room temperature. The cells were then washed and re-suspended at a cell concentration of 5 millions per ml in PBS and stimulated for 15 min at 37° C. in the presence of IL-2 (100 U/ml) or IL-7 (10 ng/ml). Following stimulation, the cells were fixed for 10 min at 37 degrees using cytofix buffer (BD Biosciences), pelleted and then permeabilized in PERM-III buffer (BD Biosciences) for 30 min on ice. […]
The phosphorylated form of STAT5a (Y694) (pSTAT5a) was quantified by flow cytometry.

[9] = system: pFOXO3a (S253, S315 and T32); test: FOXO3a phosphorylation in CD4+ T cells in response to TCR and cytokine engagement, Western blot; settings: 30 min, IL-7 10 ng/ml, IL-2 100 U/ml
Experimental: (A) CD4^+ T cells were cultured in the presence of anti-CD3 (2 μg/ml), anti-CD28 (2 μg/ml), anti-CD3+CD28, IL-2 (100 U/ml), IL-7 (10 ng/ml), IFN-γ (50 μg/ml) or PMA (50 ng/ml) for 15 min and analyzed by Western Blot for pFOXO3a (S315 and S253) expression levels. The results are representative of two independent experiments. (B) CD4^+ T cells were cultured in the presence of anti-CD3/anti-CD28, IL-2 (100 U/ml), IL-7 (10 ng/ml) for 30 min and analyzed by Western Blot for pFOXO3a (T32) expression levels.
Western Blotting analysis. […] Cells were washed twice with PBS and re-suspended in lysis buffer containing 50 mM NaF and 1 mM sodium pyrophosphate. Proteins from total cell extracts (10 μg) were separated on SDS-PAGE and electrotransfered onto PVDF membranes (Roche, Indianapolis, Ind.). Membranes were incubated overnight at 4° C. with specific antibodies as described in the figure legends. Detection of the immune complexes was performed using horseradish peroxidase (HRP)-conjugated goat anti-mouse (1:2500) or goat anti-rabbit IgG antibodies (1:3000). HRP activity was detected using an enhanced chemiluminescence detection procedure (ECL-plus detection system, Amersham Biosciences). Membranes were subsequently stripped and restained with an anti-actin Abs (1:10000). […] Protein expression levels were expressed as a percentage of the highest signals obtained.

Row | Molecule | expression levels of pFOXO3a (S253), fold lower as compared to untreated cells [1] | proportion of Annexin-V+ cells [2] | upregulation of Bim levels [3] | levels of FasL expression [4] | further results
1 | CC[n+]1c(/C=C/N(C)c2ccccc2)n(-c2ccccc2)c2ccc(-c3nc4ccccc4s3)cc21.[I-] [AKT-IV] | eightfold | increased in a dose-dependant fashion | three | did not change | inhibitor treatment concentration [2]: 1.6 µM
2 | OO [H2O2] | – | – | – | – | induction of pAKT (S473) [5]: higher in TCM than TEM
3 | COc1cc(O)c2c(c1)oc(=O)c1c3cc(O)c(O)cc3oc21 [Wedelolactone] | 4.5 fold | increased in a dose-dependant fashion | eightfold | did not change | inhibitor treatment concentration ([2]; Homo sapiens, CD4+ T): 100 µM; increase in Annexin-V+ cells relative to untreated cells [6]: eightfold; increase in Annexin-V+ cells relative to untreated cells [7]: twofold
4 | B1 | – | – | – | – | proportion of cells that up-regulated pSTAT5a, higher in TCM as compared to TEM ([8]; IL-7 10 ng/ml, 15 min, p<0.002): 30%±6.5; pSTAT5a response ([8]; both TCM and TEM, brief IL-7 treatment): upregulated pSTAT5a; levels of pFOXO3a at T32 [9]: threefold
